Assay results from PubChem BioAssay (NCI).
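All cell lines were grown in 96-well plates and treated with compound for 48 hours. TGI: concentration producing complete growth inhibition.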

Columns and labels:
Test in all cases: growth of human tumour cells (NCI), 48 h
786-0 renal = test system: 786-0 renal
A498 renal = test system: A498 renal
A549 NSCLC = test system: A549 NSCLC
ACHN renal = test system: ACHN renal
CAKI-1 renal = test system: CAKI-1 renal
CCRF-CEM leukemia = test system: CCRF-CEM leukemia
COLO 205 colon = test system: COLO 205 colon
DU-145 prostate = test system: DU-145 prostate
EKVX NSCLC = test system: EKVX NSCLC
HCC-2998 colon = test system: HCC-2998 colon
HCT-116 colon = test system: HCT-116 colon
HCT-15 colon = test system: HCT-15 colon
HOP-62 NSCLC = test system: HOP-62 NSCLC
HOP-92 NSCLC = test system: HOP-92 NSCLC
HS 578T breast = test system: HS 578T breast
HT29 colon = test system: HT29 colon
IGROV1 ovarian = test system: IGROV1 ovarian
K-562 leukemia = test system: K-562 leukemia
KM12 colon = test system: KM12 colon
LOX IMVI melanoma = test system: LOX IMVI melanoma
M14 melanoma = test system: M14 melanoma
MALME-3M melanoma = test system: MALME-3M melanoma
MCF7 breast = test system: MCF7 breast
MDA-MB-231 breast = test system: MDA-MB-231 breast
MDA-MB-435 = test system: MDA-MB-435
MDA-N = test system: MDA-N
MOLT-4 leukemia = test system: MOLT-4 leukemia
NCI-H226 lung = test system: NCI-H226 lung
NCI-H23 lung = test system: NCI-H23 lung
NCI-H460 lung = test system: NCI-H460 lung
NCI-H522 lung = test system: NCI-H522 lung
NCI/ADR-RES ovarian = test system: NCI/ADR-RES ovarian
OVCAR-3 ovarian = test system: OVCAR-3 ovarian
OVCAR-4 ovarian = test system: OVCAR-4 ovarian
OVCAR-5 ovarian = test system: OVCAR-5 ovarian
OVCAR-8 ovarian = test system: OVCAR-8 ovarian
PC-3 prostate = test system: PC-3 prostate
RPMI-8226 leukemia = test system: RPMI-8226 leukemia
RXF 393 renal = test system: RXF 393 renal
SF-268 CNS = test system: SF-268 CNS
SF-295 CNS = test system: SF-295 CNS
SF-539 CNS = test system: SF-539 CNS
SK-MEL-2 melanoma = test system: SK-MEL-2 melanoma
SK-MEL-28 melanoma = test system: SK-MEL-28 melanoma
SK-MEL-5 melanoma = test system: SK-MEL-5 melanoma
SK-OV-3 ovarian = test system: SK-OV-3 ovarian
SN12C renal = test system: SN12C renal
SNB-19 CNS = test system: SNB-19 CNS
SNB-75 CNS = test system: SNB-75 CNS
SR leukemia = test system: SR leukemia
SW-620 colon = test system: SW-620 colon
T-47D breast = test system: T-47D breast
TK-10 renal = test system: TK-10 renal
U251 CNS = test system: U251 CNS
UACC-257 melanoma = test system: UACC-257 melanoma
UACC-62 melanoma = test system: UACC-62 melanoma
UO-31 renal = test system: UO-31 renal
HL-60(TB) leukemia = test system: HL-60(TB) leukemia

`C[Si](C)(C)CCOCN(C(=O)C1=CCC2(CC1)OCCO2)c1ccccc1I` gave a TGI (786-0 renal) of 39.8 µM, a TGI (A498 renal) of 27.3 µM and a TGI (A549 NSCLC) of 88.2 µM. For the same compound, the TGI (ACHN renal) was 44 µM, the TGI (CAKI-1 renal) was 55.7 µM and the TGI (CCRF-CEM leukemia) was 79.5 µM. For the same compound, the TGI (COLO 205 colon) was greater than 100 µM, the TGI (DU-145 prostate) was greater than 100 µM and the TGI (EKVX NSCLC) was 29.1 µM. It also gave a TGI (HCC-2998 colon) of 50.5 µM, a TGI (HCT-116 colon) of 44.8 µM and a TGI (HCT-15 colon) of 41.6 µM. The TGI (HOP-62 NSCLC) was 42.1 µM, the TGI (HOP-92 NSCLC) was 22.1 µM and the TGI (HS 578T breast) was 44.6 µM. The TGI (HT29 colon) was greater than 100 µM, the TGI (IGROV1 ovarian) was 42.9 µM and the TGI (K-562 leukemia) was greater than 100 µM. For the same compound, the TGI (KM12 colon) was 38.3 µM, the TGI (LOX IMVI melanoma) was greater than 100 µM and the TGI (M14 melanoma) was 39.5 µM. It also gave a TGI (MALME-3M melanoma) of 52.9 µM, a TGI (MCF7 breast) of 34.4 µM and a TGI (MDA-MB-231 breast) of 56.6 µM. For the same compound, the TGI (MDA-MB-435) was 33.8 µM, the TGI (MDA-N) was 59.1 µM and the TGI (MOLT-4 leukemia) was 98.7 µM. For the same compound, the TGI (NCI-H226 lung) was 53.8 µM, the TGI (NCI-H23 lung) was 39 µM and the TGI (NCI-H460 lung) was 61.3 µM. It also gave a TGI (NCI-H522 lung) of 38.7 µM, a TGI (NCI/ADR-RES ovarian) greater than 100 µM and a TGI (OVCAR-3 ovarian) of 38.9 µM. The TGI (OVCAR-4 ovarian) was 45.5 µM, the TGI (OVCAR-5 ovarian) was 41.9 µM and the TGI (OVCAR-8 ovarian) was greater than 100 µM. For the same compound, the TGI (PC-3 prostate) was 27 µM, the TGI (RPMI-8226 leukemia) was 52.2 µM and the TGI (RXF 393 renal) was 35.4 µM. It also gave a TGI (SF-268 CNS) of 41.9 µM, a TGI (SF-295 CNS) of 32 µM and a TGI (SF-539 CNS) of 53.4 µM. For the same compound, the TGI (SK-MEL-2 melanoma) was 32.6 µM, the TGI (SK-MEL-28 melanoma) was 42.9 µM and the TGI (SK-MEL-5 melanoma) was greater than 100 µM. The TGI (SK-OV-3 ovarian) was 33.4 µM, the TGI (SN12C renal) was 70.9 µM and the TGI (SNB-19 CNS) was 37.7 µM. For the same compound, the TGI (SNB-75 CNS) was 34.6 µM, the TGI (SR leukemia) was greater than 100 µM and the TGI (SW-620 colon) was 68 µM. It also gave a TGI (T-47D breast) greater than 100 µM, a TGI (TK-10 renal) of 63.5 µM and a TGI (U251 CNS) greater than 100 µM. It also gave a TGI (UACC-257 melanoma) of 54.3 µM, a TGI (UACC-62 melanoma) of 41.3 µM and a TGI (UO-31 renal) of 38.9 µM.
In the case of `OC(Cc1cnnc2ccccc12)C(Cl)(Cl)Cl` (centres undefined), the TGI (786-0 renal) is reported as greater than 10 µM, the TGI (A498 renal) is reported as greater than 10 µM and the TGI (A549 NSCLC) is reported as greater than 10 µM. The TGI (ACHN renal) was greater than 10 µM, the TGI (CAKI-1 renal) was greater than 10 µM and the TGI (CCRF-CEM leukemia) was greater than 10 µM. For the same compound, the TGI (COLO 205 colon) was greater than 10 µM, the TGI (DU-145 prostate) was greater than 10 µM and the TGI (EKVX NSCLC) was greater than 10 µM. The TGI (HCC-2998 colon) was greater than 10 µM, the TGI (HCT-116 colon) was greater than 10 µM and the TGI (HCT-15 colon) was greater than 10 µM. It also gave a TGI (HL-60(TB) leukemia) greater than 10 µM, a TGI (HOP-62 NSCLC) greater than 10 µM and a TGI (HOP-92 NSCLC) greater than 10 µM. The TGI (HS 578T breast) was greater than 10 µM, the TGI (HT29 colon) was greater than 10 µM and the TGI (IGROV1 ovarian) was greater than 10 µM. The TGI (K-562 leukemia) was greater than 10 µM, the TGI (KM12 colon) was greater than 10 µM and the TGI (LOX IMVI melanoma) was greater than 10 µM. For the same compound, the TGI (M14 melanoma) was greater than 10 µM, the TGI (MALME-3M melanoma) was greater than 10 µM and the TGI (MCF7 breast) was greater than 10 µM. It also gave a TGI (MDA-MB-231 breast) greater than 10 µM, a TGI (MDA-MB-435) greater than 10 µM and a TGI (MDA-N) greater than 10 µM. It also gave a TGI (MOLT-4 leukemia) greater than 10 µM, a TGI (NCI-H226 lung) greater than 10 µM and a TGI (NCI-H23 lung) greater than 10 µM. The TGI (NCI-H460 lung) was greater than 10 µM, the TGI (NCI-H522 lung) was greater than 10 µM and the TGI (NCI/ADR-RES ovarian) was greater than 10 µM. It also gave a TGI (OVCAR-3 ovarian) greater than 10 µM, a TGI (OVCAR-4 ovarian) greater than 10 µM and a TGI (OVCAR-8 ovarian) greater than 10 µM. The TGI (PC-3 prostate) was greater than 10 µM, the TGI (RPMI-8226 leukemia) was greater than 10 µM and the TGI (RXF 393 renal) was greater than 10 µM. The TGI (SF-268 CNS) was greater than 10 µM, the TGI (SF-295 CNS) was greater than 10 µM and the TGI (SF-539 CNS) was greater than 10 µM. The TGI (SK-MEL-2 melanoma) was greater than 10 µM, the TGI (SK-MEL-28 melanoma) was greater than 10 µM and the TGI (SK-MEL-5 melanoma) was greater than 10 µM. The TGI (SK-OV-3 ovarian) was greater than 10 µM, the TGI (SN12C renal) was greater than 10 µM and the TGI (SNB-19 CNS) was greater than 10 µM. It also gave a TGI (SNB-75 CNS) greater than 10 µM, a TGI (SR leukemia) greater than 10 µM and a TGI (SW-620 colon) greater than 10 µM. For the same compound, the TGI (T-47D breast) was greater than 10 µM, the TGI (TK-10 renal) was greater than 10 µM and the TGI (U251 CNS) was greater than 10 µM. The TGI (UACC-257 melanoma) was greater than 10 µM, the TGI (UACC-62 melanoma) was greater than 10 µM and the TGI (UO-31 renal) was greater than 10 µM.
